{
  "source": "patent US20260207623A1",
  "about": "“USE OF ESTETROL IN HEPATICALLY IMPAIRED PATIENTS” (ESTETRA SRL, priority 2022, published 2026)",
  "system": "post-menopausal women",
  "experiment": "Example 2 dose-finding study: weekly severity of moderate to severe VMS",
  "assay_type": "in vivo, human",
  "conditions": "for LS adjusted mean change from baseline in weekly severity of moderate to severe VMS: week 12, ANCOVA",
  "source_text": "A severity scoring system to define the different severity categories of VMS is commonly used in the technical field: • a score of mild (1) for a sensation of heat without sweating; • a score of moderate (2) for a sensation of heat with sweating/the subject is able to continue activity; and • a score of severe (3) for a sensation of heat with sweating/which causes cessation of activity.\nIn addition, a severity score of zero is attributed to the patients who have experienced a 100% VMS relief during a given week. From these score records, the VMS severity at baseline is typically calculated by taking into account only moderate and severe VMS, such that the total number of moderate VMS during the 7 days of the baseline week is multiplied by 2 and added to the total number of severe VMS during the 7 days of the baseline week multiplied by 3. This total is then divided by the total number of moderate and severe VMS during the baseline week.\nThe severity at weeks 4 and 12 is calculated using the following formula for each of these weeks: • the number of mild VMS during 7 days multiplied by 1; • the number of moderate VMS during 7 days multiplied by 2; • the number of severe VMS during 7 days multiplied by 3; and adding the 3 resulting numbers together before dividing this total by the total number of mild, moderate and severe VMS during the 7 days of the week.\nAll treatments (Estetrol, hereinafter E4 as monohydrate, [2.5 mg, 5 mg, 10 mg, 15 mg] capsule) were administered once daily (QD) per os for at least 12 consecutive weeks until the last biological assessments (Day 91 maximum) had been performed.\nIn order to better analyse the data recorded in this study, treatment groups have been compared using an ANCOVA (analysis of covariance) with respect to the change in severity of moderate to severe VMS from baseline to mild, moderate and severe VMS at week 4 and week 12 for each active treatment versus placebo. For women who experienced 100% VMS relief at week 4 and/or week 12, a value of zero was attributed. The ANCOVA model includes treatment (“trt1”) as a fixed effect and baseline (“base”) as a covariate.",
  "data": [
    {"compound": "C[C@]12CC[C@@H]3c4ccc(O)cc4CC[C@H]3[C@@H]1[C@@H](O)[C@@H](O)[C@@H]2O", "note": "[E4 monohydrate, estetrol monohydrate]", "values": [
      {"measurement": "Mean change from baseline in weekly severity of moderate to severe VMS", "setting": "2.5 mg QD, week 0", "value": 0},
      {"measurement": "Mean relative change (% from baseline) in weekly severity of moderate to severe VMS", "setting": "2.5 mg QD, week 0", "value": 0, "unit": "%"},
      {"measurement": "Mean relative change (% from baseline) in weekly severity of moderate to severe VMS", "setting": "2.5 mg QD, week 1", "value": "−7", "unit": "%"},
      {"measurement": "Mean relative change (% from baseline) in weekly severity of moderate to severe VMS", "setting": "2.5 mg QD, week 2", "value": "−9", "unit": "%"},
      {"measurement": "Mean relative change (% from baseline) in weekly severity of moderate to severe VMS", "setting": "2.5 mg QD, week 3", "value": "−14", "unit": "%"},
      {"measurement": "Mean relative change (% from baseline) in weekly severity of moderate to severe VMS", "setting": "2.5 mg QD, week 4", "value": "−15", "unit": "%"},
      {"measurement": "Mean relative change (% from baseline) in weekly severity of moderate to severe VMS", "setting": "2.5 mg QD, week 5", "value": "−17", "unit": "%"},
      {"measurement": "Mean relative change (% from baseline) in weekly severity of moderate to severe VMS", "setting": "2.5 mg QD, week 6", "value": "−22", "unit": "%"},
      {"measurement": "Mean relative change (% from baseline) in weekly severity of moderate to severe VMS", "setting": "2.5 mg QD, week 7", "value": "−20", "unit": "%"},
      {"measurement": "Mean relative change (% from baseline) in weekly severity of moderate to severe VMS", "setting": "2.5 mg QD, week 8", "value": "−24", "unit": "%"},
      {"measurement": "Mean relative change (% from baseline) in weekly severity of moderate to severe VMS", "setting": "2.5 mg QD, week 9", "value": "−24", "unit": "%"},
      {"measurement": "Mean relative change (% from baseline) in weekly severity of moderate to severe VMS", "setting": "2.5 mg QD, week 10", "value": "−26", "unit": "%"},
      {"measurement": "Mean relative change (% from baseline) in weekly severity of moderate to severe VMS", "setting": "2.5 mg QD, week 11", "value": "−25", "unit": "%"},
      {"measurement": "Mean relative change (% from baseline) in weekly severity of moderate to severe VMS", "setting": "2.5 mg QD, week 12", "value": "−28", "unit": "%"},
      {"measurement": "Mean change from baseline in weekly severity of moderate to severe VMS", "setting": "5 mg QD, week 0", "value": 0},
      {"measurement": "Mean relative change (% from baseline) in weekly severity of moderate to severe VMS", "setting": "5 mg QD, week 0", "value": 0, "unit": "%"},
      {"measurement": "Mean relative change (% from baseline) in weekly severity of moderate to severe VMS", "setting": "5 mg QD, week 1", "value": "−4", "unit": "%"},
      {"measurement": "Mean relative change (% from baseline) in weekly severity of moderate to severe VMS", "setting": "5 mg QD, week 2", "value": "−5", "unit": "%"},
      {"measurement": "Mean relative change (% from baseline) in weekly severity of moderate to severe VMS", "setting": "5 mg QD, week 3", "value": "−7", "unit": "%"},
      {"measurement": "Mean relative change (% from baseline) in weekly severity of moderate to severe VMS", "setting": "5 mg QD, week 4", "value": "−10", "unit": "%"},
      {"measurement": "Mean relative change (% from baseline) in weekly severity of moderate to severe VMS", "setting": "5 mg QD, week 5", "value": "−7", "unit": "%"},
      {"measurement": "Mean relative change (% from baseline) in weekly severity of moderate to severe VMS", "setting": "5 mg QD, week 6", "value": "−14", "unit": "%"},
      {"measurement": "Mean relative change (% from baseline) in weekly severity of moderate to severe VMS", "setting": "5 mg QD, week 7", "value": "−12", "unit": "%"},
      {"measurement": "Mean relative change (% from baseline) in weekly severity of moderate to severe VMS", "setting": "5 mg QD, week 8", "value": "−14", "unit": "%"},
      {"measurement": "Mean relative change (% from baseline) in weekly severity of moderate to severe VMS", "setting": "5 mg QD, week 9", "value": "−14", "unit": "%"},
      {"measurement": "Mean relative change (% from baseline) in weekly severity of moderate to severe VMS", "setting": "5 mg QD, week 10", "value": "−15", "unit": "%"},
      {"measurement": "Mean relative change (% from baseline) in weekly severity of moderate to severe VMS", "setting": "5 mg QD, week 11", "value": "−18", "unit": "%"},
      {"measurement": "Mean relative change (% from baseline) in weekly severity of moderate to severe VMS", "setting": "5 mg QD, week 12", "value": "−17", "unit": "%"},
      {"measurement": "Mean change from baseline in weekly severity of moderate to severe VMS", "setting": "10 mg QD, week 0", "value": 0},
      {"measurement": "Mean relative change (% from baseline) in weekly severity of moderate to severe VMS", "setting": "10 mg QD, week 0", "value": 0, "unit": "%"},
      {"measurement": "Mean relative change (% from baseline) in weekly severity of moderate to severe VMS", "setting": "10 mg QD, week 1", "value": "−8", "unit": "%"},
      {"measurement": "Mean relative change (% from baseline) in weekly severity of moderate to severe VMS", "setting": "10 mg QD, week 2", "value": "−13", "unit": "%"},
      {"measurement": "Mean relative change (% from baseline) in weekly severity of moderate to severe VMS", "setting": "10 mg QD, week 3", "value": "−17", "unit": "%"},
      {"measurement": "Mean relative change (% from baseline) in weekly severity of moderate to severe VMS", "setting": "10 mg QD, week 5", "value": "−21", "unit": "%"},
      {"measurement": "Mean relative change (% from baseline) in weekly severity of moderate to severe VMS", "setting": "10 mg QD, week 6", "value": "−26", "unit": "%"},
      {"measurement": "Mean relative change (% from baseline) in weekly severity of moderate to severe VMS", "setting": "10 mg QD, week 7", "value": "−27", "unit": "%"},
      {"measurement": "Mean relative change (% from baseline) in weekly severity of moderate to severe VMS", "setting": "10 mg QD, week 8", "value": "−28", "unit": "%"},
      {"measurement": "Mean relative change (% from baseline) in weekly severity of moderate to severe VMS", "setting": "10 mg QD, week 9", "value": "−28", "unit": "%"},
      {"measurement": "Mean relative change (% from baseline) in weekly severity of moderate to severe VMS", "setting": "10 mg QD, week 10", "value": "−29", "unit": "%"},
      {"measurement": "Mean relative change (% from baseline) in weekly severity of moderate to severe VMS", "setting": "10 mg QD, week 11", "value": "−25", "unit": "%"},
      {"measurement": "Mean relative change (% from baseline) in weekly severity of moderate to severe VMS", "setting": "10 mg QD, week 12", "value": "−28", "unit": "%"},
      {"measurement": "LS adjusted mean change from baseline in weekly severity of moderate to severe VMS", "setting": "10 mg QD", "value": "−0.6934"},
      {"measurement": "Mean change from baseline in weekly severity of moderate to severe VMS", "setting": "15 mg QD, week 0", "value": 0},
      {"measurement": "Mean relative change (% from baseline) in weekly severity of moderate to severe VMS", "setting": "15 mg QD, week 0", "value": 0, "unit": "%"},
      {"measurement": "Mean relative change (% from baseline) in weekly severity of moderate to severe VMS", "setting": "15 mg QD, week 1", "value": "−3", "unit": "%"},
      {"measurement": "Mean relative change (% from baseline) in weekly severity of moderate to severe VMS", "setting": "15 mg QD, week 2", "value": "−12", "unit": "%"},
      {"measurement": "Mean relative change (% from baseline) in weekly severity of moderate to severe VMS", "setting": "15 mg QD, week 3", "value": "−20", "unit": "%"},
      {"measurement": "Mean relative change (% from baseline) in weekly severity of moderate to severe VMS", "setting": "15 mg QD, week 4", "value": "−24", "unit": "%"},
      {"measurement": "Mean relative change (% from baseline) in weekly severity of moderate to severe VMS", "setting": "15 mg QD, week 5", "value": "−31", "unit": "%"},
      {"measurement": "Mean relative change (% from baseline) in weekly severity of moderate to severe VMS", "setting": "15 mg QD, week 6", "value": "−30", "unit": "%"},
      {"measurement": "Mean relative change (% from baseline) in weekly severity of moderate to severe VMS", "setting": "15 mg QD, week 7", "value": "−34", "unit": "%"},
      {"measurement": "Mean relative change (% from baseline) in weekly severity of moderate to severe VMS", "setting": "15 mg QD, week 8", "value": "−37", "unit": "%"},
      {"measurement": "Mean relative change (% from baseline) in weekly severity of moderate to severe VMS", "setting": "15 mg QD, week 9", "value": "−38", "unit": "%"},
      {"measurement": "Mean relative change (% from baseline) in weekly severity of moderate to severe VMS", "setting": "15 mg QD, week 10", "value": "−40", "unit": "%"},
      {"measurement": "Mean relative change (% from baseline) in weekly severity of moderate to severe VMS", "setting": "15 mg QD, week 11", "value": "−42", "unit": "%"},
      {"measurement": "Mean relative change (% from baseline) in weekly severity of moderate to severe VMS", "setting": "15 mg QD, week 12", "value": "−44", "unit": "%"},
      {"measurement": "LS adjusted mean change from baseline in weekly severity of moderate to severe VMS", "setting": "15 mg QD", "value": "−1.042"}
    ]}
  ]
}
